“Also recorded” adds a separate entry of the source. Marks after values point to notes of the source that are not given here. l = locked nucleic acid (LNA); d = 2'-deoxy (DNA)

The values that follow come from US10179913B2, “MicroRNA-328 anti-sense composition and therapeutic use” (KAOHSIUNG MEDICAL UNIVERSITY, priority 2015, dated 2019).

The subject of series [1] is myopia-induced C57BL/6J mice. Put plainly: Example 6: confirmation of DNA 16mer by a CRO in myopia-induced mice. In kind it is in vivo. The text has this:
The procedure of myopia induction is: The 21 days old C57BL/6J mice were purchased from the National Laboratory Animal Center, Taiwan. All animal experiments were in compliance with the ARVO Statement for the Use of Animals in Ophthalmic and Vision Research. The procedure of myopia induction is described briefly as the following: Right eyes of the 23 days old mice were covered for 4 weeks to induce myopia and the left eyes were uncovered. Then the right eyes of the myopia-induced mice were treated with […], of saline (i.e. negative control group), 1% atropine (i.e. positive control group), 10 nM, 100 nM, and 1 μM of DNA 16mer on 30th, 37th and 44th day. Mice were sacrificed on 51th day and the eyes were collected. The isolated eyes were photographed under a dissection microscope and the axial lengths were measured using imageJ and a proprietary software for automatic measure. Myopia (nearsightedness) causes elongation of axial length, which is the major pathological change in myopia. The difference of axial length (i.e. delta axial length) between the covered right eye and the non-covered left eye of the same mouse indicates the severity of myopia.

Series [2] has as its system myopia-induced C57BL/6J mice. Put plainly: Example 5: validation of DNA 16mer and LNA 403 versus atropine in myopia-induced mice. In kind it is in vivo. The following applies: for Mean of delta AXL: right eye covered 4 weeks, 30 μL on day 30, 37 and 44, day 51. The method, then:
(§1) The 21 days old C57BL/6J mice were purchased from the National Laboratory Animal Center, Taiwan. All animal experiments were in compliance with the ARVO Statement for the Use of Animals in Ophthalmic and Vision Research. The procedure of myopia induction is described briefly as the following: Right eyes of the 23 days old mice were covered for 4 weeks to induce myopia (i.e. nearsightedness) and the left eyes were uncovered. Then the right eyes of the myopia-induced mice were treated with 30 μL of saline (i.e. negative control group), 1% atropine (i.e. positive control group), DNA16mer or LNA403 at 1 μM on 30th, 37th and 44th day. Mice were sacrificed on 51th day and the eyes were collected. The isolated eyes were photographed under a dissection microscope and the axial lengths were measured using imageJ and a proprietary software for automatic measure. Myopia (nearsightedness) causes elongation of axial length, which is the major pathological change in myopia. The difference of axial length (i.e. delta axial length) between the covered right eye and the non-covered left eye of the same mouse indicates the severity of myopia. Statistical evaluation was done by using Mann-Whitney U test. Analysis with p-values <0.05 being considered significant.

Series [3] has as its system myopia-induced C57BL/6J mice. The experiment in a line: Example 4: efficacy in myopia-induced mice, delta axial length. It counts as in vivo. Particulars: for reduction of delta axial length compared to control group: 1 μM on day 30, 37 and 44, versus saline; for activity in treating myopia in mice (in words): decrease of average axial length; for Delta axial length, mm mean (SD): right (myopia) minus left eye, 30 μL to right eye on day 30, 37 and 44, eyes collected day 51. On the procedure: as §1, with “covered” for “covered for 4 weeks”, “(i.e.” for “(i.e. negative”, “DNA16mer, DNA17mer, LNA403, LNA404,” for “1% atropine (i.e. positive control group), DNA16mer”, “LNA405,” for “LNA403”, “[…]” for “imageJ and a proprietary software for automatic measure.”, “p-values<0.05” for “p-values <0.05”

A further series has as its system miR-328. Put plainly: In vitro inhibition of miR-328 expression by antisense oligonucleotides transfected into ARPE-19 RPE cells (qRT-PCR, normalized to U6). In kind it is cell-based, human. Particulars: for inhibitory effect on miR-328 expression: RPE cells (ARPE-19), Lipofectamine 2000 transfection, 24 hours; for inhibition of miR-328 expression in vitro (in words): RPE cells, 30, 50 and 100 nM. On the procedure:
Cell Culture, Treatments, and Transfection
An RPE cell line called “ARPE-19” was grown in Dulbecco's modified Eagle's medium (DMEM)/F12 medium. The cell line was grown with 1% penicillin/streptomycin and 10% heat-inactivated fetal bovine serum (FBS) at 37° C. in a humidified atmosphere of 95% air/[…] carbon dioxide (CO2). To conduct the transfection experiments, cells were seeded into a 12-well plate at a density of 1×10^5 cells/well. After achieving 70% confluence in a well, antisense oligonucleotides (concentrations of 30, 50 and 100 nM) were transfected with Lipofectamine 2000 (Invitrogen) according to the manufacturer's instructions. After 24 hours of incubation, cells were lysed for further studies.
Detect the Inhibition of miR-328 Expression by Antisense Oligonucleotides
Total RNA was extracted from cultured cells using Trizol according to the manufacturer's instructions. RNA purity was checked using A260/A280 readings. miR-328 was first reversed transcribed to miR-328 cDNA using the following procedure: 5 ng of RNA was reverse transcribed with miR-328 specific primer and MultiScribe reverse transcriptase kit (Applied Biosystems). To measure the miR-328 expression, quantitative real-time PCR was performed on an ABI 7500 real-time PCR machine (Applied Biosystems) with miR-328 specific probe according to manufacturer's instructions (Applied Biosystems). The inhibitory effect by antisense oligonucleotides was evaluated by measuring the level of miR-328 cDNA by quantitative real-time PCR. The expression level of miR-328 was normalized to that of a small non-coding nuclear RNA U6 as the internal control.
In general terms: In qPCR the cycle at which signal appears reflects the starting amount.

A further series can be described thus: Safety in animal studies. In kind it is in vivo.

On to `CN1[C@@H]2CC[C@H]1C[C@@H](OC(=O)C(CO)c1ccccc1)C2` (stereo partly shown) [Atropine, atropine, reference compound], for which, in series [1] (1% atropine), the “Delta axial length Mean” value is on record as −0.060. Moreover, the “right eye axial, mm Mean” value in series [1] (1% atropine to right (myopia) eye) came out at 3.049 mm. In series [1] (1% atropine to right eye, left eye uncovered), the “left eye axial, mm Mean” value is 3.108 mm. The “Mean of delta AXL” value in series [2] (1% atropine) was −0.037.

“5′-+C*+G*+G*+A*A*G*G*G*C*A*G*A*G*A*G*G*+G*+C*+C*+A-3′ (antisense CGGAAGGGCAGAGAGGGCCA; sugars from the 5' end l4 d12 l4, all phosphorothioate, methylation of C not given here) [LNA403, LNA-modified and PS bond-modified anti-sense miR-328 oligonucleotide, 20 mer]”: the “reduction of delta axial length compared to control group” value (from here on “reduction of delta axial length”) in series [3] is recorded as 0.054 mm. Further, the “activity in treating myopia in mice (in words)” value is recorded as “effective in treating myopia in mice” in series [3] (1 μM) and “exhibited an activity for treating myopia” in series [3] (1 μM, listed as 403). In series [3] (1 μM), the “Delta axial length, mm mean (SD)” value is listed as −0.036 (0.079)* mm. In series [2] (1 μM), the “efficacy in reducing elongation of eyeball compared with 1% atropine (in words)” value is on record as “more effective than 1% atropine”. In addition, the “Mean of delta AXL” value in series [2] (1 μM) is −0.052. Moreover, the “inhibitory effect on miR-328 expression” value in the series on miR-328 (30 nM) is listed as 97%; in the series with miR-328 (50 nM), 97%; in the series on miR-328 (100 nM), 90%. Further, the “inhibition of miR-328 expression in vitro (in words)” value (“inhibition of miR-328 expression” for short) with miR-328 was “inhibited”.

For the compound “5′-AAGGGCAGAGAGGGCCA-3′ (DNA, backbone not given here) [DNA 17mer, anti-sense miR-328 oligodeoxyribonucleotide]”, in series [3], the “reduction of delta axial length” value is given as 0.065 mm. Further, the “activity in treating myopia in mice (in words)” value in series [3] (1 μM, listed as 17mer) is given as “exhibited an activity for treating myopia”; in series [3] (1 μM, listed as DNA17mer), “effective in treating myopia in mice”. Also, the “average delta axial length compared with control animals (in words)” value in series [3] (1 μM, versus saline, Mann-Whitney U test) is “statistically significantly smaller”. For the same compound, the “Delta axial length, mm mean (SD)” value in series [3] (1 μM) is reported as −0.047 (0.073)* mm. Moreover, the “inhibitory effect on miR-328 expression” value in the series on miR-328 (30 nM) came out at 43%; in the series with miR-328 (50 nM) it was 41%; with miR-328 (100 nM), 48%. The “inhibition of miR-328 expression” value in the series with miR-328 was “inhibited”. In addition, in “Safety in animal studies”, the “safety in animal studies (in words)” value is on record as “safe”.

Regarding “5′-+G*+A*+A*+G*G*G*C*A*G*A*G*A*G*G*+G*+C*+C*+A-3′ (antisense GAAGGGCAGAGAGGGCCA; sugars from the 5' end l4 d10 l4, all phosphorothioate, methylation of C not given here) [LNA405, LNA-modified and PS bond-modified anti-sense miR-328 oligonucleotide, 18 mer]”, the “reduction of delta axial length” value in series [3] is 0.035 mm. The “Delta axial length, mm mean (SD)” value in series [3] (1 μM) is −0.017 (0.054) mm. Further, the figures for the “inhibitory effect on miR-328 expression” value in the series with miR-328 (30 nM), in the series on miR-328 (50 nM) and in the series with miR-328 (100 nM) were 98%, 98% and 99%, respectively. Besides, the “inhibition of miR-328 expression” value in the series with miR-328 was “inhibited”.

As to “5′-GGGCAGAGAGGGCCA-3′ (DNA, backbone not given here) [15mer, anti-sense miR-328 oligodeoxyribonucleotide]”, the “inhibition of miR-328 expression” value with miR-328 was “did not show any activity; also recorded: no inhibitory effect”.

As for “5′-+G*+G*+A*+A*G*G*G*C*A*G*A*G*A*G*G*+G*+C*+C*+A-3′ (antisense GGAAGGGCAGAGAGGGCCA; sugars from the 5' end l4 d11 l4, all phosphorothioate, methylation of C not given here) [LNA404, LNA-modified and PS bond-modified anti-sense miR-328 oligonucleotide, 19 mer]”, the “reduction of delta axial length” value in series [3] is on record as 0.025 mm. The “Delta axial length, mm mean (SD)” value in series [3] (1 μM) is −0.007 (0.100) mm. Moreover, the “inhibitory effect on miR-328 expression” value with miR-328 (30 nM) is 98%; with miR-328 (50 nM), 98%; in the series with miR-328 (100 nM), 99%. Also, the “inhibition of miR-328 expression” value in the series with miR-328 is recorded as “inhibited”.
